In brackets after ≈: the same amount, converted by molar mass.
How the values were obtained:
Type in all cases: functional
[1] = system: Mycobacterium tuberculosis; assay: Antimycobacterial activity against Mycobacterium tuberculosis H37Rv ATCC 27294 expressing wild-type rpoB gene by resazurin microtiter assay
[2] = system: Mycobacterium tuberculosis; assay: Antimycobacterial activity against Mycobacterium tuberculosis isolate MA03 expressing wild-type rpoB gene by resazurin microtiter assay
[3] = system: Mycobacterium tuberculosis; assay: Antimycobacterial activity against Mycobacterium tuberculosis isolate 359 expressing wild-type rpoB gene by resazurin microtiter assay
[4] = system: Mycobacterium tuberculosis; assay: Antimycobacterial activity against Mycobacterium tuberculosis isolate 361 expressing wild-type rpoB gene by resazurin microtiter assay
[5] = system: Mycobacterium tuberculosis; assay: Antimycobacterial activity against Mycobacterium tuberculosis isolate 353 expressing wild-type rpoB gene by resazurin microtiter assay

Compound	MIC [1]	MIC [2]	MIC [3]	MIC [4]	MIC [5]
CO[C@H]1/C=C/O[C@@]2(C)Oc3c(C)c(O)c4c(c3[C@H]2O)C2=NC3(CCN(CC(C)C)CC3)NC2=C(NC(=O)/C(C)=C\C=C\[C@H](C)[C@H](O)[C@@H](C)[C@@H](O)[C@@H](C)[C@H](O)[C@@H]1C)C4=O	0.06 µg/mL (≈ 0.0743 µM)	< 0.06 µg/mL	0.25 µg/mL (≈ 0.31 µM)	0.12 µg/mL (≈ 0.149 µM)	2 µg/mL (≈ 2.48 µM)
CO[C@H]1/C=C/O[C@@]2(C)Oc3c(C)c(O)c4c(c3C2=O)C2=NC3(CCN(CC(C)C)CC3)NC2=C(NC(=O)/C(C)=C\C=C\[C@H](C)[C@H](O)[C@@H](C)[C@@H](O)[C@@H](C)[C@H](O)[C@@H]1C)C4=O	0.06 µg/mL (≈ 0.0745 µM)	< 0.06 µg/mL	< 0.06 µg/mL	< 0.06 µg/mL	> 2 µg/mL
C=CCCCCCCCCC(=O)N1C2=C3NC(=O)/C(C)=C\C=C\[C@H](C)[C@H](O)[C@@H](C)[C@@H](O)[C@@H](C)[C@H](OC(C)=O)[C@H](C)[C@@H](OC)/C=C/O[C@@]4(C)Oc5c(C)c(O)c(c(c5C4=O)C2=NC12CCN(CC(C)C)CC2)C3=O	0.06 µg/mL (≈ 0.0592 µM)	< 0.06 µg/mL	< 0.06 µg/mL	< 0.06 µg/mL	> 2 µg/mL
CO[C@H]1/C=C/O[C@@]2(C)Oc3c(C)c(O)c4c(c3C2=O)C2=NC3(CCN(CC(C)C)CC3)NC2=C(NC(=O)/C(C)=C\C=C\[C@H](C)[C@H](O)[C@@H](C)[C@@H](O)[C@@H](C)[C@H](OC(C)=O)[C@@H]1C)C4=O [RIFABUTIN]	0.06 µg/mL (≈ 0.0708 µM)	< 0.06 µg/mL	< 0.06 µg/mL	< 0.06 µg/mL	0.12 µg/mL (≈ 0.142 µM)
CO[C@H]1/C=C/O[C@@]2(C)Oc3c(C)c(O)c4c(c3C2=O)C2=NC3(CCN(CC(C)C)CC3)N(C(C)=O)C2=C(NC(=O)/C(C)=C\C=C\[C@H](C)[C@H](O)[C@@H](C)[C@@H](O)[C@@H](C)[C@H](OC(C)=O)[C@@H]1C)C4=O	0.06 µg/mL (≈ 0.0675 µM)	< 0.06 µg/mL	< 0.06 µg/mL	< 0.06 µg/mL	0.12 µg/mL (≈ 0.135 µM)
CO[C@H]1/C=C/O[C@@]2(C)Oc3c(C)c(O)c4c(c3[C@H]2O)C2=NC3(CCN(CC(C)C)CC3)N(C(C)=O)C2=C(NC(=O)/C(C)=C\C=C\[C@H](C)[C@H](O)[C@@H](C)[C@@H](O)[C@@H](C)[C@H](OC(C)=O)[C@@H]1C)C4=O	0.06 µg/mL (≈ 0.0673 µM)	< 0.06 µg/mL	< 0.06 µg/mL	< 0.06 µg/mL	> 2 µg/mL
CO[C@H]1/C=C/O[C@@]2(C)Oc3c(C)c(O)c4c(O)c(c(/C=N/N5CCN(C)CC5)c(O)c4c3C2=O)NC(=O)/C(C)=C\C=C\[C@H](C)[C@H](O)[C@@H](C)[C@@H](O)[C@@H](C)[C@H](OC(C)=O)[C@@H]1C [RIFAMPIN]	0.06 µg/mL (≈ 0.0729 µM)	< 0.06 µg/mL	0.12 µg/mL (≈ 0.146 µM)	< 0.06 µg/mL	> 2 µg/mL
CCCCCCCCCCCCCCCC(=O)N1C2=C3NC(=O)/C(C)=C\C=C\[C@H](C)[C@H](O)[C@@H](C)[C@@H](O)[C@@H](C)[C@H](OC(C)=O)[C@H](C)[C@@H](OC)/C=C/O[C@@]4(C)Oc5c(C)c(O)c(c(c5C4=O)C2=NC12CCN(CC(C)C)CC2)C3=O	0.06 µg/mL (≈ 0.0553 µM)	< 0.06 µg/mL	< 0.06 µg/mL	< 0.06 µg/mL	> 2 µg/mL

Reference: ChEMBL document CHEMBL1926527, “Pharmacophore insights into rpoB gene mutations in Mycobacterium tuberculosis rifampicin resistant isolates” (2012)
